The text below walks through data of patent US12480163B2, “Compositions and methods for identification assessment, prevention, and treatment of Ewing sarcoma using TP53 dependency biomarkers and modulators” (Dana-Farber Cancer Institute, Inc., priority 2018, dated 2025).

“Also recorded” adds a separate entry of the source.

Data set [1] relates to TP53 wild-type Ewing sarcoma cell lines. Briefly: CellTiter-Glo cell viability assay, TP53 wild-type Ewing sarcoma cell lines. The format is cell-based. To be noted: treated for 3 d. As to the method: (§1) Cell viability was assessed using the CellTiter-Glo® Luminescent Cell Viability Assay (Promega). Viability assays were performed after Ewing sarcoma cell lines were infected with sgRNAs targeting TP53, MDM2, MDM4, PPM1D, or USP7 or treated with ATSP-7041, ATSP-7342, GSK2830371, P5091, XL-188, or vehicle control.
(In general: In ATP-based viability assays light output follows the ATP content of the culture.)

Another data set concerns the target T1, Wip1 (Homo sapiens, UniProt O15297).
T1 construct: Whole-cell lysates were extracted in cell lysis buffer (Cell Signaling); endogenous in cells; host or cells: TP53 wild-type Ewing sarcoma cell lines
T1 sequence (O15297 1-605): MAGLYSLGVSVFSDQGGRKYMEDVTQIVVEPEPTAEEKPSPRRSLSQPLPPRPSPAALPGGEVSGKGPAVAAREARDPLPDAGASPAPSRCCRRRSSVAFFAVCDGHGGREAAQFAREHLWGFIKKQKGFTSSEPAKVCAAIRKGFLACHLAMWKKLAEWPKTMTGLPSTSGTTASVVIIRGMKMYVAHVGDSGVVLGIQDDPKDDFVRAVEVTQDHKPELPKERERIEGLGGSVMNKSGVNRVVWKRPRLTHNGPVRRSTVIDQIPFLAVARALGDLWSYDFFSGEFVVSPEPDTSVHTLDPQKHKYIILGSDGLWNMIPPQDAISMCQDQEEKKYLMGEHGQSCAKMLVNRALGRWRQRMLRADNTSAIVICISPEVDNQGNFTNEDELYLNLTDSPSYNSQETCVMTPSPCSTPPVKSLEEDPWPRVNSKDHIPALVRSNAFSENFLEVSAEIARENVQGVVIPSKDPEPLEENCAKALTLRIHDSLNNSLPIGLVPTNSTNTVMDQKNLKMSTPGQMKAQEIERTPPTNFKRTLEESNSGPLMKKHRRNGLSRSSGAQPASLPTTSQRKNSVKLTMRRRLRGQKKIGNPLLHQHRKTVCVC
Briefly: Western immunoblotting of Wip1 and pSer15-p53. The data set is classed as cell-based. To be noted: Western blot. As to the method: (§2) Whole-cell lysates were extracted in cell lysis buffer (Cell Signaling) supplemented with EDTA-free protease inhibitors and PhosSTOP™ phosphatase inhibitors (Roche). Western immunoblotting was performed using standard techniques. Primary antibodies used included anti-MDM2 (ab178938; Abcam), anti-MDM2 (86934; Cell Signaling), anti-MDM4 (A300-287A; Bethyl Laboratories), anti-p53 (2527S; Cell Signaling), anti-p21 (2946S; Cell Signaling), anti-Vinculin (18058; Abcam), anti-Wip1 (A300-664A; Bethyl Laboratories), anti-pSer15-p53 (9284; Cell Signaling), anti-USP7 (A300-033A; Bethyl Laboratories), and anti-Tubulin (cp06; CalBiochem).

In another data set the test system is TP53 knockout cells. Briefly: CellTiter-Glo cell viability assay, TP53 knockout cells. To be noted: TP53 knockout cells vs control cells, treated for 3 d. The data set is classed as cell-based. As to the method:
Lentivirus was produced by transfecting HEK-293T cells with the pLentiV2 vector (Addgene plasmid 52961) and the packaging plasmids pCMV8.9 and pCMV-VSVG according to the FuGENER 6 (Roche) protocol. For lentiviral transduction, Ewing sarcoma cells were incubated with 2 ml of virus and 8 μg/ml of polybrene (Sigma-Aldrich). Cells were selected in puromycin (Sigma-Aldrich) 48 h after infection for single knockout experiments. For dual knockout experiments, PPM1D, USP7, and MDM4 sgRNA sequences were cloned into a LentiV2 vector with a blasticidin selection marker (Addgene plasmid 83480).
d. sgRNA Sequences sgRNAs were designed using the Broad Institute's sgRNA designer tool. The following sequences were used as control or to target the respective genes: control sgRNA, 5′-[…]-3′ (SEQ ID NO: 125); sgMDM2 2: 5′-[…]-3′ (SEQ ID NO: 126); sgMDM2 5: 5′-[…]-3′ (SEQ ID NO: 127); sgMDM4 4: 5′-[…]-3′ (SEQ ID NO: 128); sgMDM4 6: 5′-[…]-3′ (SEQ ID NO: 129); sgUSP7 1: 5′-[…]-3′ (SEQ ID NO: 130); sgUSP7 2: 5′-ACCATACCCAAATTATTC CG-3′ (SEQ ID NO: 131); sgPPMID 1: 5′-[…]-3′ (SEQ ID NO: 132); sgPPMID 2: 5′-[…]-3′ (SEQ ID NO: 133); sgTP53 1: 5′-[…]-3′ (SEQ ID NO: 134); sgTP53 2: 5′-[…]-3′ (SEQ ID NO: 135); sgTP53 4: 5′-[…]-3′ (SEQ ID NO: 136); and sgTP53 5: 5′-[…]-3′ (SEQ ID NO: 137). e. Protein Extraction and Immunoblotting
as §1

The subject of data set [2] is TP53 wild-type Ewing sarcoma cell lines. The experiment in a line: Annexin V staining, flow cytometry (cell death). The format is cell-based. To be noted: TC32 and CHLA258; 2 d ATSP-7041 (2 μM, 4 μM) or P5091 (6.5 μM, 8 μM), 3 d GSK2830371 (15 μM). As to the method: Cell death was measured using flow cytometric analysis of Annexin V staining according to the manufacturer's instructions (eBioscience). Data analysis was completed using Flowjo 7.6 software (Treestar).
In general terms: In flow cytometry, cells or beads pass a laser one at a time.

The subject of data set [3] is MDM2, p53, and p21 protein levels. The experiment in a line: Western immunoblotting of MDM2, p53, p21 in TP53 wild-type Ewing sarcoma cell lines. The data set is classed as cell-based. To be noted: for MDM2 protein levels, combination of ATSP-7041 and P5091 compared with ATSP-7041 alone: TC32 and TC138 cells, 2 d. As to the method:
as §2

The next data set has as its system MDM2 protein levels. The experiment in a line: Western immunoblotting of MDM2 in TP53 mutated cell lines A673 and EWS502. To be noted: TP53 mutated cell lines A673 and EWS502, 1 μM; 4 h. The data set is classed as cell-based. As to the method: as §2
(In general: In western blotting, separated proteins are transferred to a membrane and probed.)

A further data set addresses T2, p53-MDM4 complex (Homo sapiens, UniProt O15151).
T2 construct: endogenous in cells; host or cells: TC32 Ewing sarcoma cells (TP53 wild-type), lysed in NP-40 buffer
T2 sequence (O15151 1-490): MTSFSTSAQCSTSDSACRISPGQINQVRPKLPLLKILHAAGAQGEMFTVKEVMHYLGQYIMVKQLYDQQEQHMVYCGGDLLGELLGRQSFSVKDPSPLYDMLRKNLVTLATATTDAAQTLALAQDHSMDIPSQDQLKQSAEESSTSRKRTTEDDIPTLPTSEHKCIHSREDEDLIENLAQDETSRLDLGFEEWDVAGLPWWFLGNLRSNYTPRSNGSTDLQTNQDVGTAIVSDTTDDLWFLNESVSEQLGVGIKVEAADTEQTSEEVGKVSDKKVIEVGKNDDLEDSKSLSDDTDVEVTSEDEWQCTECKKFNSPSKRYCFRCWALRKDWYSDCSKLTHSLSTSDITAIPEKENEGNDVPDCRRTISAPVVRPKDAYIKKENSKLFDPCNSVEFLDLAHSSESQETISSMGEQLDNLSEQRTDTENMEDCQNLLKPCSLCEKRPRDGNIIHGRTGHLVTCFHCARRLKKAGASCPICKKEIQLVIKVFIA
The experiment in a line: MDM4 immunoprecipitation from TC32 cell lysates, p53 and MDM4 Western blot. The data set is classed as binding. To be noted: TC32 lysates after RG7388 pre-treatment, 20 μM compound. As to the method: g. Immunoprecipitation Experiments
Five million TC32 cells were treated with either 10 μM RG7388 or vehicle control for 4 h. Cells were lysed in buffer A (150 mM NaCl, 50 mM Tris, and 0.5% NP-40, pH 7.4) and combined with anti-MDM4 antibody (A300-287A; Bethyl Laboratories) in the presence of 20 μM RG7388, ATSP-7041, or vehicle control in a total volume of 1 ml, rotating at 4° C. for 16 h. Subsequently, 50 μl washed Protein AG beads (sc-2003; Santa Cruz) were added and the mixture was incubated for 1 h rotating at 4° C. Beads were washed three times in buffer A, and protein complexes were eluted by boiling in NuPage® LDS Sample Buffer (NP0007; Invitrogen) supplemented with DTT. Samples were analyzed by Western blot with antibodies against p53 DO-1 (sc-126; Santa Cruz) and MDM4 (A300-287A; Bethyl Laboratories).

Setting [4] is: TP53 wild-type Ewing sarcoma cell lines, micromolar concentrations.

Consider `Cc1ncc(Cl)cc1NCc1ccc(C(=O)N[C@@H](CC2CCCC2)C(=O)NC2CC2)s1` [GSK2830371, 5-[[(5-Chloro-2-methyl-3-pyridinyl)amino]methyl]-N-[(1S)-1-(cyclopentylmethyl)-2-(cycloprpylamino)-2-oxoethyl]-2-thiophenecarboxamide], for which, in data set [1] (setting [4]), the “cell viability, normalized to vehicle control” value (shortened to “cell viability, normalized”) was “reduce viability; also recorded: notable increase in susceptibility”. In addition, the “phosphorylation of Serine 15 of p53 (pSer15-p53)” value at Wip1 (single agent) is on record as “increased pSer15-p53; also recorded: triggered a surge in phosphorylation of Serine 15 of p53”. For the same compound, at Wip1 (time-dependent), the Wip1 protein levels entry is given as “decreased protein levels of Wip1; also recorded: reduced the protein levels of Wip1”. Further, in the data set with TP53 knockout cells, the “effect of TP53 knockout on the cytotoxic effect of the compound (viability)” value (from here on “effect of TP53 knockout”) is given as “less effective”. For the same compound, the “cell death measured by Annexin V staining” value in data set [2] is listed as “triggers cell death; also recorded: GSK2830371-induced cell death”.

Turning to `CC(=O)c1cc([N+](=O)[O-])c(Sc2cccc(Cl)c2Cl)s1` [P5091], the “MDM2 protein levels, combination of ATSP-7041 and P5091 compared with ATSP-7041 alone” value is on record as “decreased MDM2 protein levels; also recorded: decreased the level of MDM2 protein” in data set [3] and “suppresses the feedback up-regulation of MDM2” in data set [3] (listed as P0951). In addition, in data set [3] (TP53 wild-type cells TC32 and TC138, Western blot), the “p53 and p21 protein levels” value is “increase in p53 and p21 protein levels; also recorded: increased p53 and p21 protein levels in a time-dependent fashion”. Moreover, in data set [1] (setting [4]), the “cell viability, normalized” value is given as “reduce viability; also recorded: relatively more cytotoxic”. Further, the “effect of TP53 knockout” value in the data set on TP53 knockout cells is recorded as “did not rescue”. Besides, the “cell death measured by Annexin V staining” value in data set [2] is “triggers cell death; also recorded: P5091-induced cell death”.

For the compound `COc1cc(C(=O)O)ccc1NC(=O)[C@@H]1N[C@@H](CC(C)(C)C)[C@](C#N)(c2ccc(Cl)cc2F)[C@H]1c1cccc(Cl)c1F` [RG7388], the MDM2 protein levels result is given as “increase in MDM2 protein levels” in data set [3] (TP53 wild-type cell lines TC32 and TC138, 1 μM, 4 h); “no response; also recorded: no increase in MDM2 protein” in the data set with MDM2 protein levels. Moreover, at p53-MDM4 complex, the “disruption of p53-MDM4 complex (MDM4 immunoprecipitation)” value is given as “does not interrupt binding; also recorded: unable to dissociate”.

Take `C[C@H](CC(=O)N1CCC(O)(Cn2cnc3cc(NC(=O)CCN4CCN(C)CC4)ccc3c2=O)CC1)c1ccccc1` [XL-188, (R)—N-(3-((4-hydroxy-1-(3-phenylbutanoyl)piperidin-4-yl)methyl)-4-oxo-3,4-dihydroquinazolin-7-yl)-3-(4-methylpiperazin-1-yl) propanamide]: the “cell viability, normalized” value in data set [1] (TC32 cells) is on record as “especially robust effect”; in data set [1] (setting [4]), “reduced viability predominantly in TP53 wild-type Ewing sarcoma cell lines”. Besides, the “effect of TP53 knockout” value with TP53 knockout cells is recorded as “completely reversed the cytotoxic effect”.
